Measured values from ChEMBL document CHEMBL1201862, “PubChem BioAssay data set” (2004).
Calls of active or inactive are those of the source.

Experiments:
[1] = target: DNA repair and recombination protein RAD54-like (Homo sapiens, UniProt Q92698); test: RAD54 Holliday junction migration blockers – biochemical, fluorescence, cherry-picked samples, dose series, confirmation (AID 651657); type: functional
[2] = target: T1, Polyadenylate-binding protein 1 (Homo sapiens, UniProt P11940); test: MLLE domain peptide-binding blockers, IC50 – biochemical, fluorescence polarization, FITC-PAM2 peptide, dose response (AID 602259); type: functional; details: read-out: IC50_Mean
[3] = target: T2, Orexin/Hypocretin receptor type 1 (Homo sapiens, UniProt O43613); test: (§1) Fluorescence-based cell-based high throughput dose response assay for antagonists of the orexin 1 receptor (OX1R; HCRTR1). [Related pubchem assays (depositor defined):AID434989, AID435008, AID463079, AID485270, AID492963, AID492964, AID492965, AID493232, AID504717, AID504718]; type: functional
T2 sequence (O43613 whole entry): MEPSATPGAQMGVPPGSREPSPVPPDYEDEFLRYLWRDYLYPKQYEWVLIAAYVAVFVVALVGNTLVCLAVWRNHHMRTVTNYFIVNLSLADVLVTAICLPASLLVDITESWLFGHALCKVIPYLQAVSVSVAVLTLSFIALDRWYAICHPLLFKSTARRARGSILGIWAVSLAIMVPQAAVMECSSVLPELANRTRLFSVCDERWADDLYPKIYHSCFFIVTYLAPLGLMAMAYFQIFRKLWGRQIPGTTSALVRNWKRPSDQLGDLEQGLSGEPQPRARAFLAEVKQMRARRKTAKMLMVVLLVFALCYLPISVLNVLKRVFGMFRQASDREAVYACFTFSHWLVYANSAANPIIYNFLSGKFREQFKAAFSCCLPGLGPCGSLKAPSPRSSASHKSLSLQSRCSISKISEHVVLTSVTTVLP

[4] = target: T3, Ubiquitin-conjugating enzyme E2 N (Homo sapiens, UniProt P61088); type: functional
T3 sequence (P61088 whole entry): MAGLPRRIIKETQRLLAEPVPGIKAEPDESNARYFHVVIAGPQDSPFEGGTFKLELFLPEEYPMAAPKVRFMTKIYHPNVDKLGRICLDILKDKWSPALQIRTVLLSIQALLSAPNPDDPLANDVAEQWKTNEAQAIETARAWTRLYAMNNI

[5] = target: T4, Orexin receptor type 2 (Homo sapiens, UniProt O43614); test: Counterscreen assay for antagonists of the orexin 1 receptor (OX1R; HCRTR1): Homogeneous Time Resolved Fluorescence (HTRF)-based cell-based dose response assay for antagonists of the orexin 2 receptor (OX2R; HCRTR2), run by assay provider.; type: functional
T4 sequence (O43614 whole entry): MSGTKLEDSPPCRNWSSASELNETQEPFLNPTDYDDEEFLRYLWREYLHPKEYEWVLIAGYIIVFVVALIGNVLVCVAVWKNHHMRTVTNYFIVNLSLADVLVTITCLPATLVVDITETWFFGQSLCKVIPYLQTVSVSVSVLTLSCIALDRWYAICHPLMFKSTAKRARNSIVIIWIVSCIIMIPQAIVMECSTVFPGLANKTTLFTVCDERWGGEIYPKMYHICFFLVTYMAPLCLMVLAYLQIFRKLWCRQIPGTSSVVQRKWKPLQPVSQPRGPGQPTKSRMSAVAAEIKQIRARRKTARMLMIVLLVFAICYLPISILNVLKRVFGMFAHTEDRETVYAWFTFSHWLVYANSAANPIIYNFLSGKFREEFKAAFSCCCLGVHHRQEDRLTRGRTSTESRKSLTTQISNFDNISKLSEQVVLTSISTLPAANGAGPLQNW

[6] = target: T5, Rac GTPase-activating protein 1 (Homo sapiens, UniProt Q9H0H5); test: blockers of MgcRacGAP-driven Rac1 GTP hydrolysis – biochemical, ADP Hunter fluorescence, primary and confirmatory, confirmation (AID 624330); type: functional
T5 sequence (Q9H0H5 whole entry): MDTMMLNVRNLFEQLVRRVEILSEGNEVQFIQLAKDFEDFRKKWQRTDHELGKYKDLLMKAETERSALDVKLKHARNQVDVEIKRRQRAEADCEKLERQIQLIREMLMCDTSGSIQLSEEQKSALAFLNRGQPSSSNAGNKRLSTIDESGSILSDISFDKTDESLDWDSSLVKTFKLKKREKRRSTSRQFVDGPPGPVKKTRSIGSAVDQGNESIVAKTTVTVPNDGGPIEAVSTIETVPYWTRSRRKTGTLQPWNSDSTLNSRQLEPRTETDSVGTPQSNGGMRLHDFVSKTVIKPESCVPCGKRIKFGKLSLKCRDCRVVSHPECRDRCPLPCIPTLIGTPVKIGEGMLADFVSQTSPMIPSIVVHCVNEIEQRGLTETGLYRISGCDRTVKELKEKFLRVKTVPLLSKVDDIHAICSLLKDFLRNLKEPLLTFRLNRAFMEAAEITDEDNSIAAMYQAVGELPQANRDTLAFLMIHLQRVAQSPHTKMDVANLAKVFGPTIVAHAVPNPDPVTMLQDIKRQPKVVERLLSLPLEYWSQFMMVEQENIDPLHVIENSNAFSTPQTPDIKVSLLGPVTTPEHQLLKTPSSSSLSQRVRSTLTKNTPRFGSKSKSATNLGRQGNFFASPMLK

[7] = target: T2, Orexin/Hypocretin receptor type 1; test: as §1, with “Homogeneous Time Resolved Fluorescence (HTRF)-based” for “Fluorescence-based”; type: functional
[8] = target: T4, Orexin receptor type 2; test: Counterscreen assay for antagonists of the orexin 1 receptor (OX1R; HCRTR1): Fluorescence-based cell-based dose response assay for antagonists of the orexin 2 receptor (OX2R; HCRTR2), run by assay provider.; type: functional
[9] = target: T6, Bcl-2-related protein A1 (Mus musculus, UniProt Q07440); type: functional;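 also: confirmatory dose–response counterscreen on Bfl-1, used to check hits from a UBC13 polyubiquitin inhibitor campaign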
T6 sequence (Q07440 whole entry): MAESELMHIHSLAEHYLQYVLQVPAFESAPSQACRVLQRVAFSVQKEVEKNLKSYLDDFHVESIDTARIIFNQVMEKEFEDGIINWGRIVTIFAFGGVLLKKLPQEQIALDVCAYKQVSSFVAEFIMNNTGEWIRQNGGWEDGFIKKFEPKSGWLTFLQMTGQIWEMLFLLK

[10] = target: T1, Polyadenylate-binding protein 1; test: MLLE binding blockers, Cy5 peptide tracer – biochemical, fluorescence polarization, Cy5-PAM2 peptide, secondary, miRNA deadenylation inhibitor project, dose response (AID 602260); type: functional; details: read-out: IC50_Mean
[11] = target: T7, Zinc finger protein mex-5 (Caenorhabditis elegans, UniProt Q9XUB2); test: potency of MEX-5 RNA-binding blockers – biochemical, C. elegans, fluorescence polarization, dose response (AID 1960)
T7 sequence (Q9XUB2 whole entry): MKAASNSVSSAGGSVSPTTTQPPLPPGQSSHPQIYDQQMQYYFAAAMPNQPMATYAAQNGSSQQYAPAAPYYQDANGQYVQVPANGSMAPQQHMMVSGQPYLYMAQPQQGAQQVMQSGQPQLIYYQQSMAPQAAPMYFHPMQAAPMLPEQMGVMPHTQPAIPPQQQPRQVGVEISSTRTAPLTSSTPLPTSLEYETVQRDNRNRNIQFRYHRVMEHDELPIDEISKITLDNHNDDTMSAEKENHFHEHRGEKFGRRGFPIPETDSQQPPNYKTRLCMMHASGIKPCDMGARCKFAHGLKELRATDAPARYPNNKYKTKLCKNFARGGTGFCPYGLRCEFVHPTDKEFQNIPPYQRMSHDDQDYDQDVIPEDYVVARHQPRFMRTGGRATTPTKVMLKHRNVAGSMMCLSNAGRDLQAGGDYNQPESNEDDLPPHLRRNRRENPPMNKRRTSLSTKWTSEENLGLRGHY

[12] = target: T8, RNA-binding protein pos-1 (Caenorhabditis elegans, UniProt G5EF15); test: disruptors of C. elegans POS-1 RNA interaction – biochemical, fluorescence polarization, dose response (AID 1964);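 also: purified POS-1 fused to maltose binding protein made in E. coli; potency of compounds blocking POS-1 binding to fluorescent RNA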
T8 sequence (G5EF15 whole entry): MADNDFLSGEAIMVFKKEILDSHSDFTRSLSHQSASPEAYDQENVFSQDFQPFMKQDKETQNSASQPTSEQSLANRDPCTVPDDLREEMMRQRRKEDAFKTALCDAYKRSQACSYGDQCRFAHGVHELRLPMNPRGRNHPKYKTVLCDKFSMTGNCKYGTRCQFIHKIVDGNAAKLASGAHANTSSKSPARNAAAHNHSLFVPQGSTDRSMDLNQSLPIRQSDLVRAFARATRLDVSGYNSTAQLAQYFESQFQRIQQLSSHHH

[13] = target: T3, Ubiquitin-conjugating enzyme E2 N; type: functional; remark: listed apart in the source
[14] = test system: CHO-K1; test: (§2) Counterscreen for antagonists of the orexin 1 receptor (OX1R; HCRTR1): Homogeneous time resolved fluorescence (HTRF)-based cell-based dose response assay to identify antagonists of the parental CHO-K1 cell line. [Related pubchem assays (depositor defined):AID434989, AID435008, AID463079, AID485270, AID492963, AID492964, AID492965, AID493232, AID504699, AID504701]; type: functional; details: Cricetulus griseus
[15] = as §2, with “Fluorescence-based” for “Homogeneous time resolved fluorescence (HTRF)-based”, “cell-based high throughput” for “cell-based”, “CHO” for “CHO-K1”; type: functional
[16] = target: T9, Voltage-gated N-type calcium channel alpha-1B subunit/Amyloid beta A4 precursor protein-binding family A member 1 (Homo sapiens, UniProt Q00975+Q02410); type: protein assay
[17] = target: Large T antigen (Simian virus 40, UniProt P03070); type: functional, Betapolyomavirus macacae;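 also: Confirmatory-stage PubChem screen for compounds that inhibit SV40 T antigen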
[18] = target: T9, Voltage-gated N-type calcium channel alpha-1B subunit/Amyloid beta A4 precursor protein-binding family A member 1; type: protein assay; remark: listed apart in the source
[19] = target: T10, Apoptotic protease-activating factor 1 (Homo sapiens, UniProt O14727); type: functional
T10 sequence (O14727 whole entry): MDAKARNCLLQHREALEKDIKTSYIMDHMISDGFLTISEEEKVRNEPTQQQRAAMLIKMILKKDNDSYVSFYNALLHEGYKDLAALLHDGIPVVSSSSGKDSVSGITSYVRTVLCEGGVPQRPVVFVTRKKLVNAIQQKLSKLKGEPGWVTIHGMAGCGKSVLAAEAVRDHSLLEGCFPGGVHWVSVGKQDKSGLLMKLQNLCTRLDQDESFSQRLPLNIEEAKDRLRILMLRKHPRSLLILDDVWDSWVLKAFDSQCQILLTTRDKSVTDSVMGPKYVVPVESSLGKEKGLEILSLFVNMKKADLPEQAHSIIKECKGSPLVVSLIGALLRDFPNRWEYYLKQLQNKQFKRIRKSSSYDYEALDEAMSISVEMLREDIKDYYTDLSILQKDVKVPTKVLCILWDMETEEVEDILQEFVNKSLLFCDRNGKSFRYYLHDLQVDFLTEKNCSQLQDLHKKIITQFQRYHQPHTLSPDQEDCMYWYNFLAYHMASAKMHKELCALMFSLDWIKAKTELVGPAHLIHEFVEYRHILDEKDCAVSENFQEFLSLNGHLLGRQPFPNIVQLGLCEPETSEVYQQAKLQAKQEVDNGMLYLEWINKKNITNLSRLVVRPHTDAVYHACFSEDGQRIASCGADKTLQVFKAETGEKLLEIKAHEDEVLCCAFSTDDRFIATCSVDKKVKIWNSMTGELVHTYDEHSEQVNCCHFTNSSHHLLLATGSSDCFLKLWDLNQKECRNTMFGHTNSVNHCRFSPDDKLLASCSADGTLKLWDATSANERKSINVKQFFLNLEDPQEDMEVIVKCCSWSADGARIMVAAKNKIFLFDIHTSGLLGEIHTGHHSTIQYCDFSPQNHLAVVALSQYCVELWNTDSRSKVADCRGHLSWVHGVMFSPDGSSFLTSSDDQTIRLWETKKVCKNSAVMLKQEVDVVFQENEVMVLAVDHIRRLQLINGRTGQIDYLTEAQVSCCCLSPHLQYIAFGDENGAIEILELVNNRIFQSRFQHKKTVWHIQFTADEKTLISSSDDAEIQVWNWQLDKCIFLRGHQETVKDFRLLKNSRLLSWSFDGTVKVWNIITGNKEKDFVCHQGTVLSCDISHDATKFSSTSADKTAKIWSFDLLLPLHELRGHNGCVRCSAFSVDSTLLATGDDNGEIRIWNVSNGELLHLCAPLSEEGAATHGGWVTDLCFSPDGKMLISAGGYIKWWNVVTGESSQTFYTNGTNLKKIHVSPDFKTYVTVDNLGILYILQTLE

[20] = target: Adenosylmethionine-8-amino-7-oxononanoate aminotransferase (Mycobacterium tuberculosis, UniProt P9WQ81); test: Mycobacterium tuberculosis BioA enzyme inhibitor Measured in Biochemical System Using Plate Reader - 2163-02_Inhibitor_Dose_CherryPick_Activity.; type: functional, Mycobacterium tuberculosis UT205
Chain of Adenosylmethionine-8-amino-7-oxononanoate aminotransferase (P9WQ81 whole entry): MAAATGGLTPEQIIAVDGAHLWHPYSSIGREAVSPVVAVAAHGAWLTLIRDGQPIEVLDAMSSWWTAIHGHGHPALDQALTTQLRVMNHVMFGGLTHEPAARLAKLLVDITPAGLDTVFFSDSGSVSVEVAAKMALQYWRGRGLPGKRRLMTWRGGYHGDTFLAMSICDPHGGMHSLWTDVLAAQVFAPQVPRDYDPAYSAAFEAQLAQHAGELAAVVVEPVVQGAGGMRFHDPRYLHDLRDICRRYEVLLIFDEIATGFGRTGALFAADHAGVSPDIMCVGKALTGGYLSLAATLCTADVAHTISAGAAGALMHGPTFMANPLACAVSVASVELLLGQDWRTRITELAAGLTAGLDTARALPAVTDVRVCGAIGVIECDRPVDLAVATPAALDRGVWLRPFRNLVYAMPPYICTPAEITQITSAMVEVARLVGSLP

T1 sequence (P11940 whole entry, the tested form may be a part): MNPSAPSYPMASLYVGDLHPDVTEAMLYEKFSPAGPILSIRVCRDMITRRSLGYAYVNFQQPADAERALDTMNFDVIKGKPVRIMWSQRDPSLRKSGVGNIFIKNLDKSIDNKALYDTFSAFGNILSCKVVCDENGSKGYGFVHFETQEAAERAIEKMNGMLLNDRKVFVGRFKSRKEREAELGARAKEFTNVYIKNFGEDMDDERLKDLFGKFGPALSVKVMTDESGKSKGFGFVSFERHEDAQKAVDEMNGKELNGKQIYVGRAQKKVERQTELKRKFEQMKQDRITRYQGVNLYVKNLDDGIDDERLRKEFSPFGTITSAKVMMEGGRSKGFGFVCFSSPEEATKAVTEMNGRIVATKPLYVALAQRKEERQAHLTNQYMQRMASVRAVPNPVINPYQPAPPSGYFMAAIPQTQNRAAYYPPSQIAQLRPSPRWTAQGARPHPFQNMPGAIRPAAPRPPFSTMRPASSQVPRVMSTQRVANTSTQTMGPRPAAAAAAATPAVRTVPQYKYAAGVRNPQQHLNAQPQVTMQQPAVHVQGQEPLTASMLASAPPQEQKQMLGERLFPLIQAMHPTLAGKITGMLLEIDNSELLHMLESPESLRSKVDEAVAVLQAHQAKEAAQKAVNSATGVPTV
T9 sequence (Q00975 whole entry): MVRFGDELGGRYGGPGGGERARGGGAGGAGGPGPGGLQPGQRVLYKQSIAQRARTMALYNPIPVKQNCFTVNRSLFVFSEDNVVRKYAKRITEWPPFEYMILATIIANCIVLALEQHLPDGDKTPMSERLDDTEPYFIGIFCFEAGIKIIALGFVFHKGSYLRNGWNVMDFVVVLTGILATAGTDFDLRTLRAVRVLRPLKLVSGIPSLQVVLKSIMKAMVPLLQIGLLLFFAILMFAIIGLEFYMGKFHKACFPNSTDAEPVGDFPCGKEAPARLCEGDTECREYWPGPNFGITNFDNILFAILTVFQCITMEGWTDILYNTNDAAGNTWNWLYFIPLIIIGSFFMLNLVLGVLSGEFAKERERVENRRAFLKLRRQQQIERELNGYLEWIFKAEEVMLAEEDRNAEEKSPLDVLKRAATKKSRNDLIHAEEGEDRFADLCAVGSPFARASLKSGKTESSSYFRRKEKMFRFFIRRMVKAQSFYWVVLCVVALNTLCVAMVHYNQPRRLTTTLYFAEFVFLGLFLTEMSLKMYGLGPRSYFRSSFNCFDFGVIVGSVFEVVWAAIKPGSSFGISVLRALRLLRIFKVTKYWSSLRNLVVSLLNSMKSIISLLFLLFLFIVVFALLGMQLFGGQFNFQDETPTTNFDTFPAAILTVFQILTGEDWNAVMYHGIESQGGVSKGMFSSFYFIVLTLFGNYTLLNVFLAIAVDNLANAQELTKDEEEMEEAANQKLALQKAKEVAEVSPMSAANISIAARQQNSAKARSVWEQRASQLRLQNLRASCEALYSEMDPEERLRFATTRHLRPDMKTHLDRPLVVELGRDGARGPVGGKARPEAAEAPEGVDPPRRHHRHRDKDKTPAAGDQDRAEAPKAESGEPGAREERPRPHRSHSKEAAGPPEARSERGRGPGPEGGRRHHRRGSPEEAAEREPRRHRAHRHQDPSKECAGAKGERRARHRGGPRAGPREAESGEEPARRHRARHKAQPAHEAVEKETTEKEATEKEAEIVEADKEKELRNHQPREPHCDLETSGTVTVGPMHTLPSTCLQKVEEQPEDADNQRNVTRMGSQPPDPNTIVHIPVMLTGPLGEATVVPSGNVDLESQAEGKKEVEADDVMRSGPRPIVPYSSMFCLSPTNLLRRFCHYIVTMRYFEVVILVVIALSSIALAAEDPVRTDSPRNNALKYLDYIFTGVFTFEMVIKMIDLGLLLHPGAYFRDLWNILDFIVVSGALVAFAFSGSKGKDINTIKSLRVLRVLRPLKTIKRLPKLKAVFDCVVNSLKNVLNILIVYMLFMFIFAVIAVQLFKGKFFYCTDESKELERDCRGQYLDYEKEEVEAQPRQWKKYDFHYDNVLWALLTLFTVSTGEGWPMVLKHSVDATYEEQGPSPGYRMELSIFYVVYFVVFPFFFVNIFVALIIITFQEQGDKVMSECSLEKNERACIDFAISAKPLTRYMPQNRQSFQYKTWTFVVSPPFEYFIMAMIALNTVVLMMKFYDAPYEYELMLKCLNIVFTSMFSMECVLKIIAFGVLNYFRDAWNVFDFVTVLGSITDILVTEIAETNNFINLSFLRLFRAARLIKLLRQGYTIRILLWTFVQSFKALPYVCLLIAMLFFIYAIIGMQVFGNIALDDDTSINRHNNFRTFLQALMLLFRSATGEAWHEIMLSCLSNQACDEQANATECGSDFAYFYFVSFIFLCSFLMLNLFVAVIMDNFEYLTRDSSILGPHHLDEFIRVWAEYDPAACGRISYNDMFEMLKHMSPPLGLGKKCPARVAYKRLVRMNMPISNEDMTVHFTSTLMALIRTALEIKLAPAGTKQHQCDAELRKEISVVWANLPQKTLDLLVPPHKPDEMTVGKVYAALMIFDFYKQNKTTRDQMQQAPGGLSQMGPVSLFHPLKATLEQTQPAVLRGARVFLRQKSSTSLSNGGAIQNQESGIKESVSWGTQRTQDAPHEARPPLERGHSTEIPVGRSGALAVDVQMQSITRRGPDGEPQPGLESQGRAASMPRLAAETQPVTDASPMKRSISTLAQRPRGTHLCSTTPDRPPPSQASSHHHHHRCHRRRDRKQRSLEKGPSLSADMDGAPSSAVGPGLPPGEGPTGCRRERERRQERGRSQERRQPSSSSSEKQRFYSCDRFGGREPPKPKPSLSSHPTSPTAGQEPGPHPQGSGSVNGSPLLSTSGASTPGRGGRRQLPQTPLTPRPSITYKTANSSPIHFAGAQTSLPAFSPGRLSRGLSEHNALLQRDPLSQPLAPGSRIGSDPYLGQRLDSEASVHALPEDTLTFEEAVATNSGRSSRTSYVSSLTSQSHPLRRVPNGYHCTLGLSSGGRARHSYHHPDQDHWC
T9 sequence (Q02410 whole entry): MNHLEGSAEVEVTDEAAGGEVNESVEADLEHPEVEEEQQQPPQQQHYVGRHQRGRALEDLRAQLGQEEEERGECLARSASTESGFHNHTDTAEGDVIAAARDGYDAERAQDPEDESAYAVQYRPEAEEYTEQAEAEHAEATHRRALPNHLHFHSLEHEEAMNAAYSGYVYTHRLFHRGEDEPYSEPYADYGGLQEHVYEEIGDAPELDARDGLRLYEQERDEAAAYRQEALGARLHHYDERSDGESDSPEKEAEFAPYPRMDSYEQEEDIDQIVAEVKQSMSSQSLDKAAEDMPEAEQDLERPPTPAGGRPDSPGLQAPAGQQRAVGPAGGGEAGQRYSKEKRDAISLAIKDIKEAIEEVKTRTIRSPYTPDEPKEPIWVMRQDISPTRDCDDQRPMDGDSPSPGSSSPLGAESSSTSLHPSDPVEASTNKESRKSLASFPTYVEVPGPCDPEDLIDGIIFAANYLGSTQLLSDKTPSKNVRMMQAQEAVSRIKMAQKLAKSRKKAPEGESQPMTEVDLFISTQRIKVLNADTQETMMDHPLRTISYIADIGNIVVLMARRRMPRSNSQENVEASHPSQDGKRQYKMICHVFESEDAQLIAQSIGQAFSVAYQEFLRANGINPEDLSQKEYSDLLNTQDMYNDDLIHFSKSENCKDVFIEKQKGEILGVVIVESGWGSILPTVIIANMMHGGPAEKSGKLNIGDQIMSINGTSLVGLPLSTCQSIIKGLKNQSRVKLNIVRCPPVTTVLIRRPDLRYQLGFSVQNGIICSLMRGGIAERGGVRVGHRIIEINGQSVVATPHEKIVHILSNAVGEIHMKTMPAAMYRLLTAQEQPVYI
Chain of DNA repair and recombination protein RAD54-like (Q92698 whole entry, the tested form may be a part): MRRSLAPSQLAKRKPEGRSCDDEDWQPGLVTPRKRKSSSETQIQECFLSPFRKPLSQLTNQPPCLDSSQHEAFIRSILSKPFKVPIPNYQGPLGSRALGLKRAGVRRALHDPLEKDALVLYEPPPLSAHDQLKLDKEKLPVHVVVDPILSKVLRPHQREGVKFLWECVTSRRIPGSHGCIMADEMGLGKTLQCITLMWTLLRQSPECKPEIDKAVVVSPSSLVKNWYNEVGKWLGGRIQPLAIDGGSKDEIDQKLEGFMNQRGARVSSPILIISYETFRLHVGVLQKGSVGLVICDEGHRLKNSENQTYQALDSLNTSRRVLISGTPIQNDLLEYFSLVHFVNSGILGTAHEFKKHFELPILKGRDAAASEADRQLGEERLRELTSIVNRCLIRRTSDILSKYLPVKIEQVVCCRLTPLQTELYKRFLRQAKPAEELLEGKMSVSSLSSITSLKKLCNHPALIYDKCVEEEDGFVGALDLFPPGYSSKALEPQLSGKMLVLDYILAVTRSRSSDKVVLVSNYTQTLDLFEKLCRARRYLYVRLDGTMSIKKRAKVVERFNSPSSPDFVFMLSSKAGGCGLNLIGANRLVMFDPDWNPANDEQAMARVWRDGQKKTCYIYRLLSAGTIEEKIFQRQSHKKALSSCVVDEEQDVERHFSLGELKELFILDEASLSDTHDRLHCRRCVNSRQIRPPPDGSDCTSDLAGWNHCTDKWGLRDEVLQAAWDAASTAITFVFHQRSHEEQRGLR

Row | SMILES | IC50 [3] | IC50 [5] | IC50 [7] | IC50 [8] | IC50 [14] | IC50 [15] | other results
1 | O=c1c2ccccc2oc2ccc(NCCCN3CCOCC3)cc12 | – | – | – | – | – | – | AC50 [1]: 34.2 µM (active)
2 | Oc1ccc(NC(=S)N=Nc2c(O)[nH]c3ccccc23)cc1 | 43.6 µM (inactive) | > 50 µM (inactive) | 3.24 µM (active) | > 88.8 µM (inactive) | > 66.2 µM (inactive) | > 49.8 µM (inactive) | IC50 [2]: > 66 µM (inactive); IC50 [4]: 0.763 µM (active); IC50 [6]: 21.5 µM (active); IC50 [9]: > 20 µM (inactive); IC50 [10]: > 66 µM (inactive); EC50 [11]: 3.98 µM (active); EC50 [12]: 16.3 µM (active); IC50 [13]: 2.17 µM (active)
3 | CC1(C)[N+]([O-])=c2ccc([N+](=O)[O-])cc2=[N+]1[O-].NO | – | – | – | – | – | – | IC50 [16]: 0.26 µM (active); IC50 [17]: 6.55 µM (active); IC50 [18]: 22.1 µM (active); IC50 [19]: 11.7 µM (active)
4 | COC(=O)C1=C(c2ccccc2OCc2ccccc2)C[C@@H]2CC[C@H]1N2C(=O)NCCOc1ccccc1Cl | > 16.6 µM (inactive) | > 50 µM (inactive) | 3.71 µM (active) | 3.9 µM (active) | > 66.2 µM (inactive) | 48.6 µM (inactive) | –
5 | Cc1ccccc1NC(=O)C1CCCN1S(=O)(=O)c1ccccc1C(F)(F)F (stereo not drawn) | 4.95 µM (active) | 2.34 µM (active) | 0.352 µM (active) | 10.1 µM (inactive) | > 66.2 µM (inactive) | > 49.8 µM (inactive) | –
6 | CN1c2ccc(-c3cccc(F)c3)cc2[C@H]2[C@H](CCN2C(=O)C2CC2)[C@H]1CO | – | – | – | – | – | – | AC50 [20]: 0.134 µM (active)
7 | CO/C(O)=C1\C(C)=Nc2sc(C(N)=O)c(N)c2C1c1ccncc1 (stereo not drawn) | – | – | – | – | – | – | AC50 [20]: 4.4 µM (active)
